Our source for the IC50 values is publication doi:10.1101/2020.08.28.272054v2 (biorxiv, 2021).

Experiment in all cases: ATPase activity, photometric phosphate release, Sf9 membranes
Type in all cases: biochemical

The target of assay [1] is αCβ3 (Oncopeltus fasciatus, UniProt A0A8S4MUF7).
Assay [2] has as its target αCβ1 (Oncopeltus fasciatus, UniProt A0A8S4MUF7).
The target of assay [3] is αCβ2 (Oncopeltus fasciatus, UniProt A0A8S4MUF7).
Sequence of αCβ2 (A0A8S4MUF7 1-1007): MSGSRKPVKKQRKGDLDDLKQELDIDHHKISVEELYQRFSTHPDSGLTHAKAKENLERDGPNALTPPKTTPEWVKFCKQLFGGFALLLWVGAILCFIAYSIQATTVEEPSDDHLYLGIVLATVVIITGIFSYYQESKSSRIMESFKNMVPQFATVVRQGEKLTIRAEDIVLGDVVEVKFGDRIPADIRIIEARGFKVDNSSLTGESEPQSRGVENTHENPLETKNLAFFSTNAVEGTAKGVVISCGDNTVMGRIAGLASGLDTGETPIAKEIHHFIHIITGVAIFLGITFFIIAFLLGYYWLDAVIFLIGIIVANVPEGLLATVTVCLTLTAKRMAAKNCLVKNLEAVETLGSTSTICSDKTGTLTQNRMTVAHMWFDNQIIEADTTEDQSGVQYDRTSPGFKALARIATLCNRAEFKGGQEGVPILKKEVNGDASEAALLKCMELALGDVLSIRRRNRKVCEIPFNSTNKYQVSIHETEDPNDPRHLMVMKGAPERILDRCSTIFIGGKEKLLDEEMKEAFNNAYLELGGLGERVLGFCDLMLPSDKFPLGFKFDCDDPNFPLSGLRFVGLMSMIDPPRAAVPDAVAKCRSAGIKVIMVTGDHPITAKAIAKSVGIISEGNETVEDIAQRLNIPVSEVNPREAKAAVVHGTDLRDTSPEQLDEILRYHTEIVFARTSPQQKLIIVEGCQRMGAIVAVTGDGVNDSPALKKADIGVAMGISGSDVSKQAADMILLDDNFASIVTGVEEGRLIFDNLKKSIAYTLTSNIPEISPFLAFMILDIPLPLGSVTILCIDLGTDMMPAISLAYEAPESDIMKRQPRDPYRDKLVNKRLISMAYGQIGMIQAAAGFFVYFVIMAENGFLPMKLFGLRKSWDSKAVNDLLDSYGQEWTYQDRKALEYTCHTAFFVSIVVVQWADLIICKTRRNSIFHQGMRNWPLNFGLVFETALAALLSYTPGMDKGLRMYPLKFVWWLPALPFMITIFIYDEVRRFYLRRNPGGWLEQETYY
Sequence of αCβ2 (A0A8S4MTQ8 1-322 partner): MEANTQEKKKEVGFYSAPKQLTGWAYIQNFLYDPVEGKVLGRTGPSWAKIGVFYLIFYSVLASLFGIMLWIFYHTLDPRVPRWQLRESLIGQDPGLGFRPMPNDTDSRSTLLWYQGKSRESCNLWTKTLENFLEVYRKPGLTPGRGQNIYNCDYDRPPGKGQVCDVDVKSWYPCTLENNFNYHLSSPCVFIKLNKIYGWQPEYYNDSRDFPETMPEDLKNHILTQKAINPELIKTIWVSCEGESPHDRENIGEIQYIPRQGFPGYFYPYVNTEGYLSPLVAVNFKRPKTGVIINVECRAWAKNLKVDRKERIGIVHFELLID

Sequence of αCβ1 (A0A8S4MUF7 1-1007): as the sequence (A0A8S4MUF7 1-1007) above
Sequence of αCβ1 (A0A8S4MTC7 1-330 partner): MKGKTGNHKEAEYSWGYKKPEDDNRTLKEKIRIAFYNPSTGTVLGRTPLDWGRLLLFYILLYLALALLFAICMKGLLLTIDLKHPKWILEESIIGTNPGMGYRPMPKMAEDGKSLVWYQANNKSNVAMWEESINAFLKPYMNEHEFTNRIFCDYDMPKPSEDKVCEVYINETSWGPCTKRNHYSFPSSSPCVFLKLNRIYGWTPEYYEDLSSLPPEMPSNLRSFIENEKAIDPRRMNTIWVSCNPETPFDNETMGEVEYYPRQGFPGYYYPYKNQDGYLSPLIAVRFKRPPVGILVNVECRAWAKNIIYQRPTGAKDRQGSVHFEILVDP
Sequence of αCβ3 (A0A8S4MUF7 1-1007): as the sequence (A0A8S4MUF7 1-1007) above
Sequence of αCβ3 (A0A8S4MV14 1-314 partner): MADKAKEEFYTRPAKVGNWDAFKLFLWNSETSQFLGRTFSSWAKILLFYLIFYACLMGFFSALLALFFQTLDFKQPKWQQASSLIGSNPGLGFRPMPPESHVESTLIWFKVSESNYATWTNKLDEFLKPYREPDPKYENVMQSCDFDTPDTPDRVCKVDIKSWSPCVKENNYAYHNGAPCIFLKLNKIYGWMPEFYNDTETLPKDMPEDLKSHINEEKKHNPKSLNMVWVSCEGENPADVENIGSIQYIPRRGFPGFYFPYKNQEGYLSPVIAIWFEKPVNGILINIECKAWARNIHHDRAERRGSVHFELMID

For `C[C@@H]1O[C@@H](O[C@H]2C[C@@H](O)[C@]3(CO)[C@H]4[C@H](O)C[C@]5(C)[C@@H](C6=CC(=O)OC6)CC[C@]5(O)[C@@H]4CC[C@]3(O)C2)[C@H](O)[C@H](O)[C@H]1O` [ouabain], the IC50 (commonly the point on the concentration scale where inhibition reaches its midpoint) in assay [1] came out at 758 µM; in assay [2], 427 µM; in assay [3], 737 µM.
